# Results published in the NIST ThermoML archive (doi:10.1021/acs.jced.7b00996).
# Numbers after ± are expanded uncertainties.
# Conditions: 100 kPa, Liquid; for viscosity: Capillary tube (Ostwald / Ubbelohde) method; for mass density: Vibrating tube method
SMILES,viscosity (288.15 K) [mPa·s],mass density (288.15 K) [kg/m3],viscosity (293.15 K) [mPa·s],mass density (293.15 K) [kg/m3],viscosity (298.15 K) [mPa·s],mass density (298.15 K) [kg/m3],viscosity (303.15 K) [mPa·s],mass density (303.15 K) [kg/m3],viscosity (308.15 K) [mPa·s],mass density (308.15 K) [kg/m3],viscosity (313.15 K) [mPa·s],mass density (313.15 K) [kg/m3],viscosity (318.15 K) [mPa·s],mass density (318.15 K) [kg/m3],viscosity (323.15 K) [mPa·s],mass density (323.15 K) [kg/m3],viscosity (328.15 K) [mPa·s],mass density (328.15 K) [kg/m3],viscosity (333.15 K) [mPa·s],mass density (333.15 K) [kg/m3],also measured
CCC(C)CO (stereo unspecified) [2-methyl-1-butanol],6.451 ± 0.13,823.02 ± 0.61,5.285 ± 0.11,819.56 ± 0.61,4.492 ± 0.093,815.82 ± 0.61,3.813 ± 0.079,812.03 ± 0.61,3.258 ± 0.068,808.2 ± 0.61,2.777 ± 0.058,804.33 ± 0.61,2.375 ± 0.049,800.39 ± 0.61,2.057 ± 0.043,796.39 ± 0.61,1.791 ± 0.037,792.34 ± 0.61,1.573 ± 0.033,788.2 ± 0.61,viscosity (338.15 K): 1.377 ± 0.029 mPa·s; mass density (338.15 K): 783.84 ± 0.61 kg/m3
CCCCCO [pentan-1-ol],4.7 ± 0.097,818.59 ± 0.61,4.045 ± 0.084,814.89 ± 0.61,3.49 ± 0.072,811.23 ± 0.61,3.034 ± 0.063,807.55 ± 0.61,2.674 ± 0.055,803.83 ± 0.61,2.356 ± 0.049,800.08 ± 0.61,2.052 ± 0.043,796.29 ± 0.61,1.811 ± 0.038,792.46 ± 0.61,1.609 ± 0.033,788.56 ± 0.61,1.433 ± 0.03,784.66 ± 0.61,viscosity (338.15 K): 1.284 ± 0.027 mPa·s; mass density (338.15 K): 780.7 ± 0.61 kg/m3
CCCC(C)O (stereo unspecified) [pentan-2-ol],5.063 ± 0.11,813.55 ± 0.61,4.172 ± 0.087,809.59 ± 0.61,3.412 ± 0.071,805.55 ± 0.61,2.825 ± 0.059,801.44 ± 0.61,2.34 ± 0.049,797.25 ± 0.61,1.993 ± 0.041,792.98 ± 0.61,1.704 ± 0.035,788.63 ± 0.61,1.475 ± 0.031,784.19 ± 0.61,1.303 ± 0.027,779.67 ± 0.61,1.135 ± 0.024,775.07 ± 0.61,viscosity (338.15 K): 1.012 ± 0.021 mPa·s; mass density (338.15 K): 770.37 ± 0.61 kg/m3
